Key:
PDE4 = assay: Inhibition of PDE4 (cytosolic enzyme preparation from U937 line), compared with rolipram; format: biochemical, human; conditions: PDE4 enzyme preparation obtained from the U937 line

Row | SMILES | IC50 (PDE4) [nM] | melting point [°C]
1 | CCCn1nc(C(C)CC)c2c1C(=O)NCC(c1ccc(OC)cc1)=N2 (racemic) [Example 90, (±)3-sec-Butyl-5-(4-methoxyphenyl)-1-propyl-6,7-dihydro-1H-pyrazolo[4,3-e][1,4]diazepin-8-one] | 193 | 85
2 | CCOC(=O)c1nn(CC)c2c1N=C(c1ccccc1)CNC2=O [Example 5, Ethyl 1-ethyl-8-oxo-5-phenyl-1,6,7,8-tetrahydropyrazolo-[4,3-e][1,4]diazepin-3-carboxylate] | 390 | 
3 | CCn1nc(C)c2c1C(=O)NCC(c1ccc(Br)cc1)=N2 [Example 7, 5-(4-Bromophenyl)-1-ethyl-3-methyl-6,7-dihydro-1H-pyrazolo[4,3-e][1,4]diazepin-8-one] | 130 | 223
4 | CCn1nc(C)c2c1C(=O)NCC(c1ccc3ccccc3c1)=N2 [Example 8, 1-Ethyl-3-methyl-5-naphth-2-yl-6,7-dihydro-1H-pyrazolo[4,3-e][1,4]diazepin-8-one] | 210 | 193
5 | CCn1nc(C)c2c1C(=O)NCC(c1sccc1Cl)=N2 [Example 9, 5-(3-Chlorothien-2-yl)-1-ethyl-3-methyl-6,7-dihydro-1H-pyrazolo[4,3-e][1,4]diazepin-8-one] | 150 | 213
6 | CCn1nc(C)c2c1C(=O)NCC(CCC(=O)OC)=N2 [Example 10, Methyl 3-(1-ethyl-3-methyl-8-oxo-1,6,7,8-tetrahydro-pyrazolo[4,3-e][1,4]diazepin-5-yl)propanoate] | 1290 | 
7 | CCn1nc(C)c2c1C(=O)NCC(c1ccc(Cl)cc1)=N2 [Example 11, 5-(4-Chlorophenyl)-1-ethyl-3-methyl-6,7-dihydro-1H-pyrazolo[4,3-e][1,4]diazepin-8-one] | 120 | 215
8 | CCn1nc(C)c2c1C(=O)NCC(c1ccc(F)cc1)=N2 [Example 13, 1-Ethyl-5-(4-fluorophenyl)-3-methyl-6,7-dihydro-1H-pyrazolo[4,3-e][1,4]diazepin-8-one] | 130 | 174
9 | CCn1nc(C)c2c1C(=O)NCC(c1cccc(Br)c1)=N2 [Example 14, 5-(3-Bromophenyl)-1-ethyl-3-methyl-6,7-dihydro-1H-pyrazolo-[4,3-e][1,4]diazepin-8-one] | 81 | 173
10 | CCn1nc(C)c2c1C(=O)NCC(c1cccc(OC)c1)=N2 [Example 18, 1-Ethyl-5-(3-methoxyphenyl)-3-methyl-6,7-dihydro-1H-pyrazolo[4,3-e][1,4]diazepin-8-one] | 100 | 120
11 | CCn1nc(C)c2c1C(=O)NCC(c1ccccc1N)=N2 [Example 19, 5-(2-Aminophenyl)-1-ethyl-3-methyl-6,7-dihydro-1H-pyrazolo[4,3-e][1,4]diazepin-8-one] | 87 | 156
12 | CCn1nc(C)c2c1C(=O)NCC(c1ccccc1OC)=N2 [Example 20, 1-Ethyl-5-(2-methoxyphenyl)-3-methyl-6,7-dihydro-1H-pyrazolo[4,3-e][1,4]diazepin-8-one] | 99 | 214
13 | CCCn1nc(C)c2c1C(=O)NCC(c1ccc(N)cc1)=N2 [Example 29, 5-(4-Aminophenyl)-3-methyl-1-propyl-6,7-dihydro-1H-pyrazolo[4,3-e][1,4]diazepin-8-one] | 330 | 225
14 | Cc1nn(CC(F)(F)F)c2c1N=C(c1ccccc1)CNC2=O [Example 30, 3-Methyl-5-phenyl-1-(2.2.2-trifluoroethyl)-6,7-dihydro-1H-pyrazolo[4,3-e][1,4]diazepin-8-one] | 300 | 
15 | CCn1nc(C(C)C)c2c1C(=O)NCC(c1ccc(N3CCCC3)cc1)=N2 [Example 38, 1-Ethyl-3-isopropyl-5-(4-pyrrolidin-1-yl-phenyl)-6,7-dihydro-1H-pyrazolo[4,3-e][1,4]diazepin-8-one] | 650 | 
16 | CCn1nc(C)c2c1C(=O)NCC(c1ccc(N(S(=O)(=O)c3ccccc3)S(=O)(=O)c3ccccc3)cc1)=N2 [Example 56, N-[4-(1-Ethyl-3-methyl-8-oxo-1,6,7,8-tetrahydro-pyrazolo[4,3-e][1,4]diazepin-5-yl)phenyl]-(phenylsulphonyl)benzenesulphonamide] | 500 | 
17 | Cc1nn(CC2CC2)c2c1N=C(c1ccccc1)CNC2=O [Example 58, 1-Cyclopropylmethyl-3-methyl-5-phenyl-6,7-dihydro-1H-pyrazolo[4,3-e][1,4]diazepin-8-one] | 140 | 
18 | C=CCn1nc(C)c2c1C(=O)NCC(c1ccccc1)=N2 [Example 59, 1-Allyl-3-methyl-5-phenyl-6,7-dihydro-1H-pyrazolo[4,3-e][1,4]diazepin-8-one] | 510 | 
19 | CCn1nc(C)c2c1C(=O)NCC(c1ccc(C(F)(F)F)cc1)=N2 [Example 62, 1-Ethyl-3-methyl-5-(4-trifluoromethylphenyl)-6,7-dihydro-1H-pyrazolo[4,3-e][1,4]diazepin-8-one] | 260 | 
20 | CCCn1nc(CC2CCCCC2)c2c1C(=O)NCC(c1ccccc1)=N2 [Example 77, 3-Cyclohexylmethyl-5-phenyl-1-propyl-6,7-dihydro-1H-pyrazolo[4,3-e][1,4]diazepin-8-one] | 210 | 
21 | CCn1nc(C)c2c1C(=[SH]c1ccc(OC)cc1)NCC=N2 [Example 83, 1-Ethyl-S-(4-methoxyphenyl)-3-methyl-6,7-dihydro-1H-pyrazolo[4,3-e][1,4]diazepin-8-thione] |  | 209
22 | CCOCc1nn(CC)c2c1N=C(c1ccccc1)CNC2=O [Example 97, 3-Ethoxymethyl-1-ethyl-5-phenyl-6,7-dihydro-1H-pyrazolo-[4,3-e][1,4]diazepin-8-one] | 1580 | 

Results, then the compound that gave them:

Row | IC50 (PDE4) [nM] | melting point [°C] | SMILES
23 | 11 |  | CCCn1nc(C(C)CC)c2c1C(=O)NCC(c1ccccc1)=N2 (racemic) [Example 70, (±)3-sec-Butyl-5-phenyl-1-propyl-6,7-dihydro-1H-pyrazolo-[4,3-e][1,4]diazepin-8-one]
24 | 33 | 50 | CCC(C)c1nn(CC)c2c1N=C(c1ccc(OC)cc1)CNC2=O (racemic) [Example 89, (±)3-sec-Butyl-1-ethyl-5-(4-methoxyphenyl)-6,7-dihydro-1H-pyrazolo[4,3-e][1,4]diazepin-8-one]
25 | 8.4 |  | CCn1nc(-c2ccccc2)c2c1C(=O)NCC(c1ccccc1)=N2 [Example 4, 1-Ethyl-3,5-diphenyl-6,7-dihydro-1H-pyrazolo[4,3-e][1,4]diazepin-8-one]
26 | 28 | 156 | CCCn1nc(C)c2c1C(=S)NCC(c1ccccc1)=N2 [Example 22, 3-Methyl-5-phenyl-1-propyl-6,7-dihydro-1H-pyrazolo[4,3-e][1,4]diazepin-8-thione]
27 | 3.8 | 191 | CCn1nc(C(C)C)c2c1C(=O)NCC(c1ccc(N)cc1)=N2 [Example 27, 5-(4-Aminophenyl)-1-ethyl-3-isopropyl-6,7-dihydro-1H-pyrazolo[4,3-e][1,4]diazepin-8-one]
28 | 48 |  | CCCn1nc(C(C)C)c2c1C(=O)NCC(c1ccc(OC)cc1OC)=N2 [Example 43, 5-(2,4-Dimethoxyphenyl)-3-isopropyl-1-propyl-6,7-dihydro-1H-pyrazolo[4,3-e][1,4]diazepin-8-one]
29 | 1.1 |  | CCn1nc(C(C)(C)C)c2c1C(=O)NCC(C(C)(C)C)=N2 [Example 44, 3,5-Di-tert-butyl-1-ethyl-6,7-dihydro-1H-pyrazolo[4,3-e][1,4]diazepin-8-one]
30 | 21 |  | CCn1nc(C(C)(C)C)c2c1C(=O)NCC(c1ccc(OC)cc1OC)=N2 [Example 47, 3-tert-Butyl-5-(2,4-dimethoxyphenyl)-1-ethyl-6,7-dihydro-1H-pyrazolo[4,3-e][1,4]diazepin-8-one]
31 | 8.1 |  | CCCn1nc(C(C)(C)C)c2c1C(=O)NCC(C(C)(C)C)=N2 [Example 48, 3,5-Di-tert-butyl-1-propyl-6,7-dihydro-1H-pyrazolo[4,3-e][1,4]diazepin-8-one]
32 | 32 |  | CCCn1nc(C(C)(C)C)c2c1C(=O)NCC(c1ccc(C)cc1)=N2 [Example 49, 3-tert-Butyl-1-propyl-5-p-tolyl-6,7-dihydro-1H-pyrazolo[4,3-e][1,4]diazepin-8-one]
33 | 16 |  | CCCn1nc(C(C)(C)C)c2c1C(=O)NCC(c1ccc(C#N)cc1)=N2 [Example 50, 4-(3-tert-Butyl-8-oxo-1-propyl-1,6,7,8-tetrahydro-1H-pyrazolo[4,3-e][1,4]diazepin-5-yl)benzonitrile]
34 | 60 |  | CCCn1nc(C(C)(C)C)c2c1C(=O)NCC(c1ccc(OC)cc1OC)=N2 [Example 51, 3-tert-Butyl-5-(2,4-dimethoxyphenyl)-1-propyl-6,7-dihydro-1H-pyrazolo[4,3-e][1,4]diazepin-8-one]
35 | 7.9 |  | CCn1nc(C(C)C)c2c1C(=O)NCC(c1ccc(C(F)(F)F)cc1)=N2 [Example 61, 1-Ethyl-3-isopropyl-5-(4-trifluoromethylphenyl)-6,7-dihydro-1H-pyrazolo[4,3-e][1,4]diazepin-8-one]
36 | 1.8 |  | CCn1nc(C2CCCCC2)c2c1C(=O)NCC(c1ccccc1)=N2 [Example 72, 3-Cyclohexyl-1-ethyl-5-phenyl-6,7-dihydro-1H-pyrazolo-[4,3-e][1,4]diazepin-8-one]
37 | 5.4 |  | CCCn1nc(C2CCCCC2)c2c1C(=O)NCC(c1ccccc1)=N2 [Example 74, 3-Cyclohexyl-5-phenyl-1-propyl-6,7-dihydro-1H-pyrazolo-[4,3-e][1,4]diazepin-8-one]
38 | 8.2 |  | CCn1nc(CC2CCCCC2)c2c1C(=O)NCC(c1ccncc1)=N2 [Example 76, 3-Cyclohexylmethyl-1-ethyl-5-pyrid-4-yl-6,7-dihydro-1H-pyrazolo[4,3-e][1,4]diazepin-8-one]
39 | 21 |  | CCCn1nc(CC2CCCCC2)c2c1C(=O)NCC(c1ccncc1)=N2 [Example 78, 3-Cyclohexylmethyl-1-propyl-5-pyrid-4-yl-6,7-dihydro-1H-pyrazolo[4,3-e][1,4]diazepin-8-one]
40 | 11 |  | CCn1nc(CC2CCCCC2)c2c1C(=O)NCC(c1ccccc1)=N2 [Example 79, 3-Cyclohexylmethyl-1-ethyl-5-phenyl-6,7-dihydro-1H-pyrazolo[4,3-e][1,4]diazepin-8-one]

From patent publication US6962912B2, “Substituted pyrazolo[4,3-e]diazepines, pharmaceutical compositions containing them, use as medicinal products and processes for preparing them” (Warner-Lambert LLC, priority 2000, dated 2005)
